Values after ≈ are worked out from the molar mass of the structure shown.
Tests used:
M. suipneumoniae JF 435 = test: MIC, anti-mycoplasmal, Friis broth solidified with 0.9% agarose; format: cell-based; settings: Mesomycoplasma hyopneumoniae, JF435, 144 h, inoculum 10^3 to 10^5 C.F.U., 6 days incubation at 37°C, read-out: in vitro MIC
Bord bronchiseptica BO8 = test: MIC, veterinary bacteria; format: cell-based; settings: veterinary bacteria (Table 2), read-out: MIC
[1] = system: Staph aureus B4 (pen resis); test: MIC, veterinary bacteria; format: cell-based; settings: Staphylococcus aureus, veterinary bacteria (Table 2), read-out: MIC
M. bovis NCTC 10131 = test: microbe, parasite or virus in culture; format: cell-based; settings: NCTC10131, 144 h, read-out: in vitro MIC
Past multocida PA1 = test: MIC, veterinary bacteria; format: cell-based; settings: veterinary bacteria (Table 2), read-out: MIC
M. gallisepticum S6 = test: MIC, anti-mycoplasmal, Friis broth solidified with 0.9% agarose; format: cell-based; settings: Mycoplasmoides gallisepticum, 144 h, inoculum 10^3 to 10^5 C.F.U., 6 days incubation at 37°C, read-out: in vitro MIC
[2] = Serum binding by ultrafiltration; format: in vitro ADME, pig; settings: pig, serum, compounds at 8 mcg/ml, microbiological assay (B. subtilis ATCC 6633), read-out: % bound to pig serum (converted)
Description: Serum binding was assessed by ultrafiltration of procine serum containing compounds at 8 mcg/ml, and through an Amicon CF50A ultrafiltration cone. Separation of ultrafiltrate was achieved by centrifugation.

M. hyorhinis ATCC 25021 = test: MIC, anti-mycoplasmal, Friis broth solidified with 0.9% agarose; format: cell-based; settings: Mesomycoplasma hyorhinis, ATCC25021, 144 h, inoculum 10^3 to 10^5 C.F.U., 6 days incubation at 37°C, read-out: in vitro MIC
[3] = system: M. hyosynoviae ATCC 25591; test: as above; format: cell-based; settings: 144 h, inoculum 10^3 to 10^5 C.F.U., 6 days incubation at 37°C, read-out: in vitro MIC
Bord bronchisptica BO9 = test: MIC, veterinary bacteria; format: cell-based; settings: veterinary bacteria (Table 2), read-out: MIC
M. suipneumoniae NB12 = test: MIC, anti-mycoplasmal, Friis broth solidified with 0.9% agarose; format: cell-based; settings: Mesomycoplasma hyopneumoniae, 144 h, inoculum 10^3 to 10^5 C.F.U., 6 days incubation at 37°C, read-out: in vitro MIC
M. pneumoniae ATCC 15492 = test: as above; format: cell-based; settings: Mycoplasmoides pneumoniae, ATCC15492, 144 h, inoculum 10^3 to 10^5 C.F.U., 6 days incubation at 37°C, read-out: in vitro MIC
E coli E1 = test: MIC, veterinary bacteria; format: cell-based; settings: veterinary bacteria (Table 2), read-out: MIC
M. suipneumoniae LABER = test: MIC, anti-mycoplasmal, Friis broth solidified with 0.9% agarose; format: cell-based; settings: Mesomycoplasma hyopneumoniae, 144 h, inoculum 10^3 to 10^5 C.F.U., 6 days incubation at 37°C, read-out: in vitro MIC
[4] = system: M. bovigenitalium ATCC 14173; test: as above; format: cell-based; settings: 144 h, inoculum 10^3 to 10^5 C.F.U., 6 days incubation at 37°C, read-out: in vitro MIC
[5] = system: Corynebacterium pyogenes CY1; test: MIC, veterinary bacteria; format: cell-based; settings: veterinary bacteria (Table 2), read-out: MIC
[6] = system: Strep suis (group D) SPS11; test: MIC, veterinary bacteria; format: cell-based; settings: veterinary bacteria (Table 2), read-out: MIC
M. suipneumoniae MS 16 = test: MIC, anti-mycoplasmal, Friis broth solidified with 0.9% agarose; format: cell-based; settings: Mesomycoplasma hyopneumoniae, MS16, 144 h, inoculum 10^3 to 10^5 C.F.U., 6 days incubation at 37°C, read-out: in vitro MIC
[7] = system: Staph aureus 152 (pen sens); test: MIC, veterinary bacteria; format: cell-based; settings: Staphylococcus aureus, veterinary bacteria (Table 2), read-out: MIC
[8] = system: M. suipneumoniae ATCC 25095; test: MIC, anti-mycoplasmal, Friis broth solidified with 0.9% agarose; format: cell-based; settings: Mesomycoplasma hyopneumoniae, ATCC25095, 144 h, inoculum 10^3 to 10^5 C.F.U., 6 days incubation at 37°C, read-out: in vitro MIC
M. suipneumoniae HK(2) = test: as above; format: cell-based; settings: Mesomycoplasma hyopneumoniae, 144 h, inoculum 10^3 to 10^5 C.F.U., 6 days incubation at 37°C, read-out: in vitro MIC
M. suipneumoniae Str. 11 = test: as above; format: cell-based; settings: Mesomycoplasma hyopneumoniae, 144 h, inoculum 10^3 to 10^5 C.F.U., 6 days incubation at 37°C, read-out: in vitro MIC
E coli NCTC 10418 = test: MIC, veterinary bacteria; format: cell-based; settings: veterinary bacteria (Table 2), read-out: MIC
Staph aureus Oxford = test: MIC, veterinary bacteria; format: cell-based; settings: Staphylococcus aureus, veterinary bacteria (Table 2), read-out: MIC
Strep dysgalaciae SPD1 = test: MIC, veterinary bacteria; format: cell-based; settings: veterinary bacteria (Table 2), read-out: MIC
M. suipneumoniae TAM 6N = test: MIC, anti-mycoplasmal, Friis broth solidified with 0.9% agarose; format: cell-based; settings: Mesomycoplasma hyopneumoniae, TAM6N, 144 h, inoculum 10^3 to 10^5 C.F.U., 6 days incubation at 37°C, read-out: in vitro MIC
M. hyorhinis ATCC 23234 = test: as above; format: cell-based; settings: Mesomycoplasma hyorhinis, ATCC23234, 144 h, inoculum 10^3 to 10^5 C.F.U., 6 days incubation at 37°C, read-out: in vitro MIC
Strep uberis SPU1 = test: MIC, veterinary bacteria; format: cell-based; settings: veterinary bacteria (Table 2), read-out: MIC
Strep agalactiae SPA1 = test: MIC, veterinary bacteria; format: cell-based; settings: veterinary bacteria (Table 2), read-out: MIC
[9] = system: M. suipneumoniae PW/C/210; test: MIC, anti-mycoplasmal, Friis broth solidified with 0.9% agarose; format: cell-based; settings: Mesomycoplasma hyopneumoniae, 144 h, inoculum 10^3 to 10^5 C.F.U., 6 days incubation at 37°C, read-out: in vitro MIC
S dublin S7 = test: MIC, veterinary bacteria; format: cell-based; settings: veterinary bacteria (Table 2), read-out: MIC
S typhimurium S18 = test: MIC, veterinary bacteria; format: cell-based; settings: veterinary bacteria (Table 2), read-out: MIC
Past Haemolytica PA5 = test: MIC, veterinary bacteria; format: cell-based; settings: veterinary bacteria (Table 2), read-out: MIC
M. dispar NCTC 10125 = test: MIC, anti-mycoplasmal, Friis broth solidified with 0.9% agarose; format: cell-based; settings: 144 h, inoculum 10^3 to 10^5 C.F.U., 6 days incubation at 37°C, read-out: in vitro MIC
M. suipneumoniae UCD 1 = test: as above; format: cell-based; settings: Mesomycoplasma hyopneumoniae, UCD1, 144 h, inoculum 10^3 to 10^5 C.F.U., 6 days incubation at 37°C, read-out: in vitro MIC
Past multocida PA2 = test: MIC, veterinary bacteria; format: cell-based; settings: veterinary bacteria (Table 2), read-out: MIC
[10] = system: M. suipneumoniae J2206/183b; test: MIC, anti-mycoplasmal, Friis broth solidified with 0.9% agarose; format: cell-based; settings: Mesomycoplasma hyopneumoniae, 144 h, inoculum 10^3 to 10^5 C.F.U., 6 days incubation at 37°C, read-out: in vitro MIC
[11] = system: Erysipelothrix rhusiopathiae NCTC 8163; test: MIC, veterinary bacteria; format: cell-based; settings: NCTC8163, veterinary bacteria (Table 2), read-out: MIC
[12] = system: M. suipneumoniae NCTC 10110; test: MIC, anti-mycoplasmal, Friis broth solidified with 0.9% agarose; format: cell-based; settings: Mesomycoplasma hyopneumoniae, NCTC10110, 144 h, inoculum 10^3 to 10^5 C.F.U., 6 days incubation at 37°C, read-out: in vitro MIC

Q: With CC(=O)Nc1ccc(C(=O)CCCOC(=O)C=C(C)CC2OCC(CC3OC3C(C)C(C)O)C(O)C2O)cc1 (centres unmarked) [Example 9, 4-(4-Acetamidophenyl)-4-oxobutyl monate A] as the molecule, how does the MIC (M. suipneumoniae JF 435) read?
A: 0.5 µg/mL (≈ 0.913 µM)

Q: What about the MIC (Bord bronchiseptica BO8) of the same molecule?
A: > 80 µg/mL

Q: What about the MIC [1] of the same molecule?
A: 1.25 µg/mL (≈ 2.28 µM)

Q: And the MIC (M. bovis NCTC 10131)?
A: ≤ 0.01 µg/mL

Q: And the MIC (Past multocida PA1)?
A: 2.5 µg/mL (≈ 4.57 µM)

Q: What about the MIC (M. gallisepticum S6) of the same molecule?
A: 2.5 µg/mL (≈ 4.57 µM)

Q: And the fraction unbound [2]?
A: 0.138

Q: And the MIC (M. hyorhinis ATCC 25021)?
A: 0.25 µg/mL (≈ 0.457 µM)

Q: What about the MIC [3] of the same molecule?
A: 0.1 µg/mL (≈ 0.183 µM)

Q: And the MIC (Bord bronchisptica BO9)?
A: 20 µg/mL (≈ 36.5 µM)

Q: And the MIC (M. suipneumoniae NB12)?
A: 0.5 µg/mL (≈ 0.913 µM)

Q: And the MIC (M. pneumoniae ATCC 15492)?
A: 0.5 µg/mL (≈ 0.913 µM)

Q: What about the MIC (E coli E1) of the same molecule?
A: > 80 µg/mL

Q: And the MIC (M. suipneumoniae LABER)?
A: 0.25 µg/mL (≈ 0.457 µM)

Q: What about the MIC [4] of the same molecule?
A: 0.05 µg/mL (≈ 0.0913 µM)

Q: And the MIC [5]?
A: > 80 µg/mL

Q: And the MIC [6]?
A: 2.5 µg/mL (≈ 4.57 µM)

Q: And the MIC (M. suipneumoniae MS 16)?
A: 0.25 µg/mL (≈ 0.457 µM)

Q: What about the MIC [7] of the same molecule?
A: 0.625 µg/mL (≈ 1.14 µM)

Q: And the MIC [8]?
A: 0.5 µg/mL (≈ 0.913 µM)

Q: What about the MIC (M. suipneumoniae HK(2)) of the same molecule?
A: 0.5 µg/mL (≈ 0.913 µM)

Q: What about the MIC (M. suipneumoniae Str. 11) of the same molecule?
A: 0.25 µg/mL (≈ 0.457 µM)

Q: And the MIC (E coli NCTC 10418)?
A: > 80 µg/mL

Q: What about the MIC (Staph aureus Oxford) of the same molecule?
A: 0.625 µg/mL (≈ 1.14 µM)

Q: What about the MIC (Strep dysgalaciae SPD1) of the same molecule?
A: 0.156 µg/mL (≈ 0.285 µM)

Q: And the MIC (M. suipneumoniae TAM 6N)?
A: 0.5 µg/mL (≈ 0.913 µM)

Q: And the MIC (M. hyorhinis ATCC 23234)?
A: 0.25 µg/mL (≈ 0.457 µM)

Q: And the MIC (Strep uberis SPU1)?
A: 0.156 µg/mL (≈ 0.285 µM)

Q: And the MIC (Strep agalactiae SPA1)?
A: 0.625 µg/mL (≈ 1.14 µM)

Q: And the MIC [9]?
A: 0.25 µg/mL (≈ 0.457 µM)

Q: What about the MIC (S dublin S7) of the same molecule?
A: > 80 µg/mL

Q: And the MIC (S typhimurium S18)?
A: > 80 µg/mL

Q: And the MIC (Past Haemolytica PA5)?
A: 20 µg/mL (≈ 36.5 µM)

Q: What about the MIC (M. dispar NCTC 10125) of the same molecule?
A: 0.1 µg/mL (≈ 0.183 µM)

Q: And the MIC (M. suipneumoniae UCD 1)?
A: 0.5 µg/mL (≈ 0.913 µM)

Q: What about the MIC (Past multocida PA2) of the same molecule?
A: 0.625 µg/mL (≈ 1.14 µM)

Q: What about the MIC [10] of the same molecule?
A: 0.5 µg/mL (≈ 0.913 µM)

Q: What about the MIC [11] of the same molecule?
A: 20 µg/mL (≈ 36.5 µM)

Q: And the MIC [12]?
A: 0.5 µg/mL (≈ 0.913 µM)

Q: What does the source list for CC(=CC(=O)OC1CCCC(=O)CCC1)CC1OCC(CC2OC2C(C)C(C)O)C(O)C1O (centres unmarked) [Example 10, Cyclooctan-5-onyl monate A]?
A: MIC (M. suipneumoniae JF 435): 2.5 µg/mL (≈ 5.34 µM); MIC (Bord bronchiseptica BO8): > 80 µg/mL; MIC [1]: 2.5 µg/mL (≈ 5.34 µM); MIC (M. bovis NCTC 10131): 0.025 µg/mL (≈ 0.0534 µM); MIC (Past multocida PA1): 40 µg/mL (≈ 85.4 µM); MIC (M. gallisepticum S6): > 10 µg/mL; MIC (M. hyorhinis ATCC 25021): 1 µg/mL (≈ 2.13 µM); MIC [3]: 0.25 µg/mL (≈ 0.534 µM); MIC (Bord bronchisptica BO9): 80 µg/mL (≈ 171 µM); MIC (M. suipneumoniae NB12): 2.5 µg/mL (≈ 5.34 µM); MIC (M. pneumoniae ATCC 15492): 10 µg/mL (≈ 21.3 µM); MIC (E coli E1): > 80 µg/mL; MIC (M. suipneumoniae LABER): 1 µg/mL (≈ 2.13 µM); MIC [4]: 0.05 µg/mL (≈ 0.107 µM); MIC [5]: 80 µg/mL (≈ 171 µM); MIC [6]: 80 µg/mL (≈ 171 µM); MIC (M. suipneumoniae MS 16): 1 µg/mL (≈ 2.13 µM); MIC [7]: 2.5 µg/mL (≈ 5.34 µM); MIC [8]: 1 µg/mL (≈ 2.13 µM); MIC (M. suipneumoniae HK(2)): 2.5 µg/mL (≈ 5.34 µM); MIC (M. suipneumoniae Str. 11): 1 µg/mL (≈ 2.13 µM); MIC (E coli NCTC 10418): > 80 µg/mL; MIC (Staph aureus Oxford): 2.5 µg/mL (≈ 5.34 µM); MIC (Strep dysgalaciae SPD1): 5 µg/mL (≈ 10.7 µM); MIC (M. suipneumoniae TAM 6N): 2.5 µg/mL (≈ 5.34 µM); MIC (M. hyorhinis ATCC 23234): 1 µg/mL (≈ 2.13 µM); MIC (Strep uberis SPU1): 1.25 µg/mL (≈ 2.67 µM); MIC (Strep agalactiae SPA1): 10 µg/mL (≈ 21.3 µM); MIC [9]: 1 µg/mL (≈ 2.13 µM); MIC (S dublin S7): > 80 µg/mL; MIC (S typhimurium S18): > 80 µg/mL; MIC (Past Haemolytica PA5): 40 µg/mL (≈ 85.4 µM); MIC (M. dispar NCTC 10125): 0.5 µg/mL (≈ 1.07 µM); MIC (M. suipneumoniae UCD 1): 1 µg/mL (≈ 2.13 µM); MIC (Past multocida PA2): 1.25 µg/mL (≈ 2.67 µM); MIC [10]: 2.5 µg/mL (≈ 5.34 µM); MIC [11]: 80 µg/mL (≈ 171 µM); MIC [12]: 1 µg/mL (≈ 2.13 µM)

— patent EP0025288A1, “Derivatives of monic acid, processes for their preparation, compositions containing them and their preparation” (priority 1979, dated 1981)
